Laboratory results published in paper PMC10876507, “Chelator impact: investigating the pharmacokinetic behavior of copper-64 labeled PD-L1 radioligands” (EJNMMI Radiopharmacy and Chemistry, 2024).

Columns and labels:
[1] = n-octanol/PBS pH 7.4, shake flask
Protocol: The n-octanol/water distribution coefficients for each radioligand were determined using the shake-flask method. Each experiment was conducted in triplicate. To initiate the experiment, 30 µL of the labeling mixture was combined with 570 µL of PBS (pH 7.4) and 600 µL of n-octanol in a 1.5 mL Eppendorf-Tube. The resulting mixture was shaken at room temperature at 1500 rpm for 5 min before undergoing centrifugation. An aliquot was extracted from each phase, and radioactivity was measured on a γ-counter (ISOMED 2160). Subsequently, mean values were calculated and adjusted for background activity. The log D7.4 value was determined utilizing the equation: logD7.4=logAn-octanol/APBS

[2] = Proteolytic stability in human serum at 37 °C, radio-HPLC; format: in vitro ADME; conditions: 48 h
Protocol: For proteolytic stability studies, a solution of the radiolabeled compound was diluted with human serum in a ratio of 1:10. This mixture then underwent incubation at 37 °C while being shaken at 300 rpm. At each designated timepoint (1, 24 and 48 h), an aliquot was withdrawn and added to a detergent solution (water with 20% v/v EtOH, 5% v/v 5 mM aqueous EDTA, 0.5% v/v Triton X-100, 0.1% m/v saponin, 0.05% v/v 0.5 mM aqueous o-phenanthroline) in a ratio of 1:2 for precipitation of serum proteins. The mixture was cooled on ice for 5 min, followed by centrifugation at 12,000 g for 5 min. A minor portion of the resulting supernatant was subjected to analytical radio-HPLC (reversed-phase, Phenomenex Jupiter 300 C-18, 5 µm, 4.6 × 250 mm) with 10–95% acetonitrile (0.1% TFA) in water (0.1% TFA) in a linear gradient over 15 min, 1 mL/min, γ-detection). The assessment and graphical representations were performed using OriginPro® 9.0.

[3] = test system: PC3 PD-L1 overexpressing and PD-L1-mock tumors; test: PET imaging in NMRI-nude mice bearing PC3 PD-L1 and PC3 mock tumors; format: in vivo; conditions: for reduction of PD-L1 positive tumor uptake under blocking conditions / reduction of liver uptake under blocking conditions / contrast of PD-L1 positive tumor SUVmax over mock tumor: 1–2 h p.i.; for reduction of PD-L1 positive tumor uptake under blocking conditions / reduction of liver uptake under blocking conditions: 500 nmol unlabeled compound; for contrast of PD-L1 positive tumor SUVmax over mock tumor: percent higher than mock tumor; for excretion pattern / clearance route in PET / SUVmax PC3 PD-L1 tumor, blocking / SUVmax PC3 mock tumor, blocking / SUVmax kidney, blocking / SUVmax liver, blocking / SUVmax PC3 PD-L1 tumor / SUVmax PC3 mock tumor / SUVmax kidney / SUVmax liver: mice; for excretion pattern / clearance route in PET: PET 0–25 h p.i.; for SUVmax PC3 PD-L1 tumor / SUVmax PC3 mock tumor / SUVmax kidney / SUVmax liver: tracer only, i.v.
Protocol: Male athymic NMRI-nude mice (Rj:NMRI-Foxn1nu, Janvier Labs, Le Genest-Saint-Isle, France) aged between 8 to 16 weeks were employed for the study. General anesthesia was induced [~ 10% desflurane (Baxter, Deerfield, IL, USA) in 30 vol% oxygen + air] under controlled warming (37°C), and mice were subcutaneously injected with 3–5 × 10^6 PC3 PD-L1 and PC3 mock cells (in 50 µL PBS + 50 µL Matrigel, Corning, Glendale, CA, USA) into the right and left thigh, respectively. The growth of tumors was systematically monitored three times per week through caliper measurements, and animals with tumor sizes above 7 mm were included in the subsequent experiments.
PET and X-ray computed tomography (CT) scans were conducted under general anesthesia using a small animal nanoScan PET/CT scanner (Mediso, Budapest, Hungary), capable of imaging four animals simultaneously. CT images served attenuation correction and anatomical referencing. A total of three individual scans were conducted, corresponding to the timeframes of 0–2 h (dynamic reconstruction), 4–5 h, and 24–25 h (one frame reconstruction) after injection.
The PD-L1 radiotracer candidates (in 300 µL sterile 0.9% NaCl/HEPES buffer, pH 6–7, containing between 7 and 12 MBq, with molar activities exceeding 12 GBq/µmol) were intravenously delivered over 30 s through a catheter in the lateral tail vein. The PET acquisition was initiated simultaneously with the administration.
The acquired three-dimensional list mode data were sorted and binned within a 400–600 keV energy window, forming […] (15 × 10 s, 5 × 30 s, 5 × 60 s, 4 × 300 s, 3 × 600 s, 3 × 1200 s). Reconstruction of the time frames was accomplished using the Tera-TomoTM 3D algorithm, utilizing a voxel size of 0.4 mm and applying corrections for decay, scatter, and attenuation. The images were subjected to post-processing and analysis using Rover software (ABX GmbH, Radeberg, Germany), and were depicted as maximum intensity projections (MIPs) at the specified timepoints and scaling.
Three-dimensional volumes of interest were defined using fixed thresholding at 35–40% of the maximal measured intensity. Standardized uptake values (SUV = [MBq detected activity/mL tissue] / [MBq injected activity/g body weight], in mL/g) were then calculated within the selected volumes of interest, encompassing PD-L1 and mock tumors, as well as metabolizing organs.

[4] = test system: PC3 PD-L1 and PC3 mock cells; test: In vitro cell uptake in PC3 PD-L1 and PC3 mock cells; format: cell-based, human; conditions: for incubation time at which cell uptake plateaued: PC3 cells, incubation 30–240 min at or close to KD; for uptake/binding to PC3 PD-L1-positive cells vs PC3 mock cells: mixed-effects model, main effect of cell type
Protocol: Both the target-positive (PC3 PD-L1) and negative cells (PC3 mock) were seeded at ~60,000 cells per well two days prior to the experiment. At the time of experiment, cells were then incubated with the respective radioligand at or close to the KD (determined by saturation binding) in binding buffer. For each timepoint and radiotracer (30, 60, 120 and 240 min), a single plate was used (with triplicate measurements). Additional controls per plate included plastic retention, nonspecific binding [excess of unlabeled BMS-1166 (in DMSO, resulting in 0.03% v/v) for both PC3 PD-L1 and PC3 mock] and cells incubated with PBS only (protein control). Following incubation, cells were washed twice in ice-cold binding buffer, lysed in 500 μL of 0.1 M NaOH + 1% SDS and radioactivity was measured in a gamma counter (Perkin Elmer Wizard 1480) and decay corrected to a reference time (end of radiolabeling).
Protein content was determined for each timepoint and cell type by BCA assay.
Figure S27: Cell uptake (fmol/mg protein) of [64Cu]Cu-14&16 into either PC3 PD-L1 or PC3 mock cells. Uptake of both […]
effects model. Binding to PC3 mock cells is similar to that of PC3 PD-L1 and PC3 mock cells blocked with an excess of […]

[5] = tracer +500 nM respective unlabeled compound (injected 5 min prior), 1-2 hour p.i.
[6] = tracer +500 nM respective unlabeled compound, 1-2 hour p.i.
[7] = tracer +500 nM respective unlabeled compound, 4-5 hour p.i.
[8] = tracer +500 nM respective unlabeled compound, 24-25 hour p.i.
[9] = 1-2 hour p.i., listed as [64Cu]Cu-14
[10] = 4-5 hour p.i., listed as [64Cu]Cu-14
[11] = 1-2 hour p.i., listed as [64Cu]Cu-16

Cc1c(COc2cc(OCc3cncc(S(C)(=O)=O)c3)c(CN[C@@H](CS(=O)(=O)O)C(=O)NCCS(=O)(=O)O)cc2Br)cccc1-c1cccc(OCc2cn(CCCN3CCN(C(=O)[C@H](CS(=O)(=O)O)NC(=O)CC[C@H](C(=O)[O-])N4CCN(CC(=O)[O-])CCN(CC(=O)[O-])CC4)CC3)nn2)c1C.[64Cu+2] [[^64Cu]Cu-14]
Log D7.4 [1]: –3.00 ± 0.03
intact radioligand after incubation in human serum [2]: over 95%
reduction of PD-L1 positive tumor uptake under blocking conditions [3]: 13%
reduction of liver uptake under blocking conditions [3]: 63%
contrast of PD-L1 positive tumor SUVmax over mock tumor [3]: 99%
excretion pattern / clearance route in PET [3]: favorable renal clearance
SUVmax PC3 PD-L1 tumor, blocking [3, 5]: 1.48 ± 0.44
SUVmax PC3 PD-L1 tumor, blocking ([3]; tracer +500 nM respective unlabeled compound (injected 5 min prior), 1-2 hour p.i., listed as [64Cu]Cu-14): 1.48
SUVmax PC3 mock tumor, blocking [3, 6]: 1.19
SUVmax kidney, blocking [3, 6]: 32.81
SUVmax liver, blocking [3, 6]: 1.25 ± 0.13
SUVmax liver, blocking ([3]; tracer +500 nM respective unlabeled compound, 1-2 hour p.i., listed as [64Cu]Cu-14): 1.25
SUVmax PC3 PD-L1 tumor, blocking [3, 7]: 0.78
SUVmax PC3 mock tumor, blocking [3, 7]: 0.48
SUVmax kidney, blocking [3, 7]: 0.88
SUVmax liver, blocking [3, 7]: 0.98
SUVmax PC3 PD-L1 tumor, blocking [3, 8]: 1.53
SUVmax PC3 mock tumor, blocking [3, 8]: 1.05
SUVmax kidney, blocking [3, 8]: 0.44
SUVmax liver, blocking [3, 8]: 0.99
SUVmax PC3 PD-L1 tumor ([3]; 1-2 hour p.i.): 1.71 ± 0.04
SUVmax PC3 mock tumor ([3]; 1-2 hour p.i.): 0.86 ± 0.16
SUVmax kidney ([3]; 1-2 hour p.i.): 22.8 ± 3.0
SUVmax liver ([3]; 1-2 hour p.i.): 3.41 ± 0.19
SUVmax PC3 PD-L1 tumor [3, 9]: 1.71
SUVmax PC3 mock tumor [3, 9]: 0.86
SUVmax kidney [3, 9]: 22.77
SUVmax liver [3, 9]: 3.41
SUVmax PC3 PD-L1 tumor ([3]; 4-5 hour p.i.): 1.26
SUVmax PC3 mock tumor ([3]; 4-5 hour p.i.): 0.50
SUVmax kidney ([3]; 4-5 hour p.i.): 0.72 ± 0.24
SUVmax liver ([3]; 4-5 hour p.i.): 1.54 ± 0.19
SUVmax kidney [3, 10]: 0.72
SUVmax liver [3, 10]: 1.54
SUVmax PC3 PD-L1 tumor ([3]; 24-25 hour p.i.): 1.52
SUVmax PC3 mock tumor ([3]; 24-25 hour p.i.): 1.49
SUVmax kidney ([3]; 24-25 hour p.i.): 0.63
SUVmax liver ([3]; 24-25 hour p.i.): 1.41
incubation time at which cell uptake plateaued [4]: 60 min
incubation time at which cell uptake plateaued ([4]; listed as [64Cu]Cu-14): ≤ 60 min
uptake/binding to PC3 PD-L1-positive cells vs PC3 mock cells ([4]; listed as [64Cu]Cu-14): significant main effect of target expression

Cc1c(COc2cc(OCc3cncc(S(C)(=O)=O)c3)c(CN[C@@H](CS(=O)(=O)O)C(=O)NCCS(=O)(=O)O)cc2Br)cccc1-c1cccc(OCc2cn(CCCN3CCN(C(=O)[C@H](CS(=O)(=O)O)NC(=O)CCCC(=O)NC45CNCCNCC(N)(CNCCNC4)CNCCNC5)CC3)nn2)c1C.[64Cu+2] [[^64Cu]Cu-16]
Log D7.4 [1]: –2.79 ± 0.02
intact radioligand after incubation in human serum [2]: 89%
reduction of PD-L1 positive tumor uptake under blocking conditions [3]: 10%
reduction of liver uptake under blocking conditions [3]: 74%
contrast of PD-L1 positive tumor SUVmax over mock tumor [3]: 107%
excretion pattern / clearance route in PET [3]: clearance via the renal pathway
SUVmax PC3 PD-L1 tumor, blocking [3, 5]: 1.45 ± 0.06
SUVmax PC3 PD-L1 tumor, blocking ([3]; tracer +500 nM respective unlabeled compound (injected 5 min prior), 1-2 hour p.i., listed as [64Cu]Cu-16): 1.45
SUVmax PC3 mock tumor, blocking [3, 6]: 0.90
SUVmax kidney, blocking [3, 6]: 7.93
SUVmax liver, blocking [3, 6]: 1.13 ± 0.04
SUVmax liver, blocking ([3]; tracer +500 nM respective unlabeled compound, 1-2 hour p.i., listed as [64Cu]Cu-16): 1.13
SUVmax PC3 PD-L1 tumor, blocking [3, 7]: 0.68
SUVmax PC3 mock tumor, blocking [3, 7]: 0.54
SUVmax kidney, blocking [3, 7]: 1.28
SUVmax liver, blocking [3, 7]: 0.84
SUVmax PC3 PD-L1 tumor, blocking [3, 8]: 1.14
SUVmax PC3 mock tumor, blocking [3, 8]: 1.01
SUVmax kidney, blocking [3, 8]: 1.02
SUVmax liver, blocking [3, 8]: 0.85
SUVmax PC3 PD-L1 tumor ([3]; 1-2 hour p.i.): 1.61 ± 0.93
SUVmax PC3 mock tumor ([3]; 1-2 hour p.i.): 0.78 ± 0.36
SUVmax kidney ([3]; 1-2 hour p.i.): 16.2 ± 15.5
SUVmax liver ([3]; 1-2 hour p.i.): 4.32 ± 0.02
SUVmax PC3 PD-L1 tumor [3, 11]: 1.61
SUVmax PC3 mock tumor [3, 11]: 0.78
SUVmax kidney [3, 11]: 16.18
SUVmax liver [3, 11]: 4.32
SUVmax PC3 PD-L1 tumor ([3]; 4-5 hour p.i.): 0.89
SUVmax PC3 mock tumor ([3]; 4-5 hour p.i.): 0.37
SUVmax kidney ([3]; 4-5 hour p.i.): 1.37
SUVmax liver ([3]; 4-5 hour p.i.): 2.49
SUVmax PC3 PD-L1 tumor ([3]; 24-25 hour p.i.): 1.47
SUVmax PC3 mock tumor ([3]; 24-25 hour p.i.): 0.87
SUVmax kidney ([3]; 24-25 hour p.i.): 0.90
SUVmax liver ([3]; 24-25 hour p.i.): 1.77 ± 0.08
SUVmax liver ([3]; 24-25 hour p.i., listed as [64Cu]Cu-16): 1.77
uptake/binding to PC3 PD-L1-positive cells vs PC3 mock cells ([4]; listed as [64Cu]Cu-16): significant main effect of target expression
